Measured values reported in PubChem BioAssay AID248 (DTP/NCI, 2004).
“And” between values parts separate entries of the source, which are not always exact repeats. Equal entries are not always repeated. Inconclusive results and toxic doses are left out. Rule as the data show it: active = T/C of 150% or more; inactive = T/C below 125%.

System: L1210 leukemia ip in BDF1 mice, survival T/C
Test: NCI In Vivo Anticancer Drug Screen. Data for tumor model L1210 Leukemia (intraperitoneal) in B6D2F1 (BDF1) mice
Details: endpoint: mean survival time, higher = longer survival
How it was run: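 Mice bearing the transplanted tumor received compound or vehicle. Survival of the treated group was divided by that of the vehicle-treated control group to give the ratio.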

[1] = dose: 100.0 mg/kg/injection, schedule: Q01DX001 (ip), vehicle: carboxymethylcellulose (CMC)
[2] = dose: 200.0 mg/kg/injection, schedule: Q01DX001 (ip), vehicle: carboxymethylcellulose (CMC)
[3] = dose: 400.0 mg/kg/injection, schedule: Q01DX001 (ip), vehicle: carboxymethylcellulose (CMC)
[4] = dose: 100.0 mg/kg/injection, schedule: Q04DX002 (ip), vehicle: saline
[5] = dose: 200.0 mg/kg/injection, schedule: Q04DX002 (ip), vehicle: saline
[6] = dose: 400.0 mg/kg/injection, schedule: Q04DX002 (ip), vehicle: saline
[7] = dose: 100.0 mg/kg/injection, schedule: Q01DX001 (ip), vehicle: saline
[8] = dose: 200.0 mg/kg/injection, schedule: Q01DX001 (ip), vehicle: saline
[9] = dose: 400.0 mg/kg/injection, schedule: Q01DX001 (ip), vehicle: saline
[10] = dose: 75.0 mg/kg/injection, schedule: Q01DX001 (ip), vehicle: saline
[11] = dose: 100.0 mg/kg/injection, schedule: Q04DX003 (ip), vehicle: Klucel (hydroxypropylcellulose) (HPC)
[12] = dose: 200.0 mg/kg/injection, schedule: Q04DX003 (ip), vehicle: Klucel (hydroxypropylcellulose) (HPC)
[13] = dose: 100.0 mg/kg/injection, schedule: Q01DX009 (ip), vehicle: saline with Tween-80
[14] = dose: 200.0 mg/kg/injection, schedule: Q01DX009 (ip), vehicle: saline with Tween-80
[15] = dose: 400.0 mg/kg/injection, schedule: Q01DX009 (ip), vehicle: saline with Tween-80
[16] = dose: 100.0 mg/kg/injection, schedule: Q04DX003 (ip), vehicle: saline with Tween-80
[17] = dose: 200.0 mg/kg/injection, schedule: Q04DX003 (ip), vehicle: saline with Tween-80
[18] = dose: 400.0 mg/kg/injection, schedule: Q04DX003 (ip), vehicle: saline with Tween-80
[19] = dose: 100.0 mg/kg/injection, schedule: Q01DX001 (ip), vehicle: Klucel (hydroxypropylcellulose) (HPC)
[20] = dose: 200.0 mg/kg/injection, schedule: Q01DX001 (ip), vehicle: Klucel (hydroxypropylcellulose) (HPC)
[21] = dose: 400.0 mg/kg/injection, schedule: Q01DX001 (ip), vehicle: Klucel (hydroxypropylcellulose) (HPC)
[22] = dose: 100.0 mg/kg/injection, schedule: Q01DX009 (ip), vehicle: Klucel (hydroxypropylcellulose) (HPC)
[23] = dose: 100.0 mg/kg/injection, schedule: Q04DX002 (ip), vehicle: Klucel (hydroxypropylcellulose) (HPC)
[24] = dose: 200.0 mg/kg/injection, schedule: Q04DX002 (ip), vehicle: Klucel (hydroxypropylcellulose) (HPC)
[25] = dose: 400.0 mg/kg/injection, schedule: Q04DX002 (ip), vehicle: Klucel (hydroxypropylcellulose) (HPC)
[26] = dose: 75.0 mg/kg/injection, schedule: Q01DX001 (ip), vehicle: other

Measured: T/C

COc1cc(C(C)S(=O)(=O)c2ccc(C)cc2)ccc1O (stereo not given)
inactive: [1] 89 % of control | [2] 93 % of control | [3] 93 % of control

NC(CC(=O)O)c1cccs1 (stereo not given)
inactive: [4] 95 % of control | [5] 95 % of control | [6] 102 % of control

O=CNc1ncn[nH]1
inactive: dose: 50.0 mg/kg/injection, schedule: Q01DX001 (ip), vehicle: saline 98 % of control | [7] 98 % of control | [8] 104 % of control | [9] 104 % of control

CCN(CC)CCN(C)CC(=O)Nc1cccc(Cl)c1C
inactive: dose: 25.0 mg/kg/injection, schedule: Q01DX009 (ip), vehicle: saline 106 % of control | dose: 50.0 mg/kg/injection, schedule: Q01DX009 (ip), vehicle: saline 93 % of control | [10] 101 % of control | dose: 100.0 mg/kg/injection, schedule: Q01DX009 (ip), vehicle: saline 98 % of control | dose: 150.0 mg/kg/injection, schedule: Q01DX001 (ip), vehicle: saline 102 % of control | dose: 150.0 mg/kg/injection, schedule: Q01DX009 (ip), vehicle: saline 100 % of control

CCC(C)C(CCCCN1CCOCC1)(CNC(=O)CN(CC)CC)c1cccc2ccccc12 (stereo not given)
inactive: dose: 12.5 mg/kg/injection, schedule: Q04DX003 (ip), vehicle: saline 104 % of control | dose: 25.0 mg/kg/injection, schedule: Q04DX003 (ip), vehicle: saline 98 % of control | dose: 50.0 mg/kg/injection, schedule: Q04DX003 (ip), vehicle: saline 108 % of control

COc1ccc(NC(=O)O/N=C2\CN(S(=O)(=O)c3ccc(C)cc3)CCc3ccccc32)cc1
inactive: [11] 91 % of control | [12] 94 % of control | dose: 400.0 mg/kg/injection, schedule: Q04DX003 (ip), vehicle: Klucel (hydroxypropylcellulose) (HPC) 96 % of control

CC(=O)Nc1ccc(/C=N/NC(=O)CC2CCCCC2)cc1
inactive: [13] 88 % of control | [14] 93 % of control | [15] 100 % of control

CC1=NN(c2ccccc2)C(=O)C1N=Nc1ccc(S(=O)(=O)Nc2nccs2)cc1 (stereo not given)
inactive: [7] 96 % of control | [8] 91 % of control | [9] 91 % of control

O=C(O)C1C(c2ccccc2)=C(c2ccccc2)c2ccccc21 (stereo not given)
inactive: dose: 25.0 mg/kg/injection, schedule: Q04DX003 (ip), vehicle: saline with Tween-80 92 % of control | dose: 50.0 mg/kg/injection, schedule: Q04DX003 (ip), vehicle: saline with Tween-80 100 % of control | [16] 95 % of control and 103 % of control

CC(C)(C)c1cc(C(C)(C)C)c(O)c(C(C)(C)C)c1
inactive: dose: 100.0 mg/kg/injection, schedule: Q01DX001 (ip), vehicle: saline with Tween-80 91 % of control | [13] 92 % of control | [16] 98 % of control | dose: 200.0 mg/kg/injection, schedule: Q01DX001 (ip), vehicle: saline with Tween-80 95 % of control | [14] 96 % of control | [17] 98 % of control | dose: 400.0 mg/kg/injection, schedule: Q01DX001 (ip), vehicle: saline with Tween-80 87 % of control | [15] 93 % of control | [18] 93 % of control

C/C(=N/N(C)C)c1ccc(C#N)cc1
inactive: [19] 112 % of control | [20] 113 % of control | [21] 105 % of control

O=C(O)CNC(=O)CCl
inactive: dose: 50.0 mg/kg/injection, schedule: Q01DX009 (ip), vehicle: Klucel (hydroxypropylcellulose) (HPC) 87 % of control | [22] 90 % of control | [11] 94 % of control | [12] 89 % of control

CCCCNC(=O)NCCN(C)c1ccccc1
inactive: [23] 94 % of control | [24] 97 % of control | [25] 102 % of control

O=C(O)CSc1ccc2ccccc2c1
inactive: [23] 89 % of control | [24] 111 % of control | [25] 108 % of control

CCc1ccc(NS(=O)(=O)c2ccc3ccccc3c2)cc1
inactive: [22] 107 % of control | dose: 200.0 mg/kg/injection, schedule: Q01DX009 (ip), vehicle: Klucel (hydroxypropylcellulose) (HPC) 107 % of control | dose: 400.0 mg/kg/injection, schedule: Q01DX009 (ip), vehicle: Klucel (hydroxypropylcellulose) (HPC) 98 % of control

Cc1onc(-c2ccccc2Cl)c1-c1nc2ccccc2c(=O)o1
inactive: [23] 93 % of control | [24] 93 % of control | [25] 96 % of control

COc1ccc(/C=C(/C(=O)c2ccc(O)cc2)c2ccccc2)cc1
inactive: [1] 87 % of control | [2] 89 % of control | [3] 87 % of control

OCC1OC(n2nnc3c(=S)nc[nH]c32)C(O)C1O (stereo not given)
inactive: dose: 3.3 mg/kg/injection, schedule: Q01DX009 (ip), vehicle: saline 101 % of control | dose: 5.0 mg/kg/injection, schedule: Q01DX009 (ip), vehicle: saline 95 % of control | dose: 7.5 mg/kg/injection, schedule: Q01DX009 (ip), vehicle: saline 94 % of control | dose: 11.25 mg/kg/injection, schedule: Q01DX009 (ip), vehicle: saline 101 % of control | dose: 15.0 mg/kg/injection, schedule: Q01DX001 (ip), vehicle: saline 96 % of control | dose: 18.0 mg/kg/injection, schedule: Q01DX009 (ip), vehicle: saline 106 % of control | dose: 25.0 mg/kg/injection, schedule: Q01DX001 (ip), vehicle: saline 98 % of control and 100 % of control | dose: 27.0 mg/kg/injection, schedule: Q01DX009 (ip), vehicle: saline 101 % of control | dose: 38.0 mg/kg/injection, schedule: Q01DX001 (ip), vehicle: saline 94 % of control | [10] 102 % of control | [7] 94 % of control and 98 % of control and 106 % of control | [8] 110 % of control

CCN(CC)CCCC(C)Nc1cc(N)nc2nc(-c3ccc(Cl)cc3)c(-c3ccc(Cl)cc3)nc12 (stereo not given)
inactive: dose: 37.5 mg/kg/injection, schedule: Q01DX009 (ip), vehicle: Klucel (hydroxypropylcellulose) (HPC) 95 % of control | dose: 37.5 mg/kg/injection, schedule: Q04DX003 (ip), vehicle: Klucel (hydroxypropylcellulose) (HPC) 98 % of control | [26] 97 % of control | dose: 75.0 mg/kg/injection, schedule: Q01DX009 (ip), vehicle: Klucel (hydroxypropylcellulose) (HPC) 90 % of control | dose: 75.0 mg/kg/injection, schedule: Q04DX003 (ip), vehicle: Klucel (hydroxypropylcellulose) (HPC) 102 % of control | dose: 150.0 mg/kg/injection, schedule: Q04DX003 (ip), vehicle: Klucel (hydroxypropylcellulose) (HPC) 93 % of control

O=S1(=O)CC(O)C(Br)C1Br (stereo not given)
inactive: [19] 96 % of control | [20] 104 % of control | [21] 94 % of control

O=C(O)C(c1ccccc1)P(=S)(c1ccccc1)c1ccccc1 (stereo not given)
inactive: [26] 89 % of control | dose: 150.0 mg/kg/injection, schedule: Q01DX001 (ip), vehicle: other 111 % of control

Oc1ccc(CNc2nn[nH]n2)cc1
inactive: [16] 94 % of control | [17] 96 % of control | [18] 96 % of control

NC(N)(C(F)(F)F)C(F)(F)F
inactive: [7] 101 % of control | [8] 102 % of control | [9] 98 % of control

COCCO
inactive: [7] 105 % of control | [8] 103 % of control | [9] 105 % of control

O=C(Cc1ccccc1)Nc1ccc(Cl)cc1C(=O)c1ccccc1
inactive: [4] 101 % of control | [5] 93 % of control | [6] 90 % of control

Oc1ccc(Cl)cc1C=Nc1ccc2c(c1)OCO2
inactive: dose: 100.0 mg/kg/injection, schedule: Q04DX002 (ip), vehicle: saline with Tween-80 91 % of control | dose: 200.0 mg/kg/injection, schedule: Q04DX002 (ip), vehicle: saline with Tween-80 88 % of control | dose: 400.0 mg/kg/injection, schedule: Q04DX002 (ip), vehicle: saline with Tween-80 91 % of control
